Laboratory results reported in US11274118B2 (priority 2012, dated 2022).
In brackets after ≈: the same amount, converted by molar mass.

Assay: physchem
Conditions: kinetic from dmso stock

| SMILES | solubility at 90 min (pH 4, aqueous buffer) [µM] | solubility at 90 min (pH 7, aqueous buffer) [µM] |
| --- | --- | --- |
| C/C(=N\OC(=O)[C@H]1CCCNC1)[C@H]1CC[C@H]2[C@@H]3CCC4=CC(=O)CC[C@]4(C)[C@H]3CC[C@]12C.Cl [Compound 22, (8S,9S,10R,13S,14S,17S)-10,13-Dimethyl-17-((E)-1-((S)-piperidine-3-carbonyloxyimino)ethyl)-6,7,8,9,10,11,12,13,14,15,16,17-dodecahydro-1H-cyclopenta[a]phenanthren-3(2H)-one hydrochloride] | 314 | 314 |
| C/C(=N\OC(=O)C1CCN(C)CC1)[C@H]1CC[C@H]2[C@@H]3CCC4=CC(=O)CC[C@]4(C)[C@H]3CC[C@]12C [Compound 19, (8S,9S,10R,13S,14S,17S)-10,13-Dimethyl-17-((E)-1-(1-methylpiperidine-4-carbonyloxyimino)ethyl)-6,7,8,9,10,11,12,13,14,15,16,17-dodecahydro-1H-cyclopenta[a]phenanthren-3(2H)-one] | > 660 | 108 (≈ 49.1 µg/mL) |
| C/C(=N\OC(=O)[C@@H]1CCCNC1)[C@H]1CC[C@H]2[C@@H]3CCC4=CC(=O)CC[C@]4(C)[C@H]3CC[C@]12C.Cl [Compound 21, (8S,9S,10R,13S,14S,17S)-10,13-dimethyl-17-((E)-1-((R)-piperidine-3-carbonyloxyimino)ethyl)-6,7,8,9,10,11,12,13,14,15,16,17-dodecahydro-1H-cyclopenta[a]phenanthren-3 (2H)-one hydrochloride] | > 500 | 428 |
| CC(=O)O/N=C(\C)[C@H]1CC[C@H]2[C@@H]3CCC4=CC(=O)CC[C@]4(C)[C@H]3CC[C@]12C [Compound 6, (8 S,9S,10R,13S,14S,17S)-17-((E)-1-(acetoxyimino)ethyl)-10,13-dimethyl-6,7,8,9,10,11,12,13,14,15,16,17-dodecahydro-1H-cyclopenta[a]phenanthren-3(2H)-one] | 180 (≈ 66.9 µg/mL) | 100 (≈ 37.2 µg/mL) |
| C/C(=N\OC(=O)CN1CCOCC1)[C@H]1CC[C@H]2[C@@H]3CCC4=CC(=O)CC[C@]4(C)[C@H]3CC[C@]12C [Compound 12, (8S,9S,10R,13S,14S,17S)-10,13-Dimethyl-17-((E)-1-(2-morpholinoacetoxyimino)ethyl)-6,7,8,9,10,11,12,13,14,15,16,17-dodecahydro-1H-cyclopenta[a]phenanthren-3(2H)-one] | 215 (≈ 98.2 µg/mL) | 215 (≈ 98.2 µg/mL) |
| C/C(=N\OC(=O)c1ccc(CN)cc1)[C@H]1CC[C@H]2[C@@H]3CCC4=CC(=O)CC[C@]4(C)[C@H]3CC[C@]12C.Cl [Compound 16, (8S,9S,10R,13S,14S,17S)-17-((E)-1-(4-(aminomethyl)benzoyloxyimino)ethyl)-10,13-dimethyl-6,7,8,9,10,11,12,13,14,15,16,17-dodecahydro-1H-cyclopenta[a]phenanthren-3 (2H)-one] | < 30 | < 30 |
| C/C(=N\OC(=O)C[N+](C)(C)C)[C@H]1CC[C@H]2[C@@H]3CCC4=CC(=O)CC[C@]4(C)[C@H]3CC[C@]12C.[I-] [Compound 11, (8S,9S,10R,13S,14S,17S)-17-((E)-1-(2-(triimethylamino)acetoxyimino)ethyl)-10,13-dimethyl-6,7,8,9,10,11,12,13,14,15,16,17-dodecahydro-1H-cyclopenta[a]phenanthren-3(2H)-one Iodide] | > 540 | 45 |
| C/C(=N\OC(=O)c1ccc(CN2CCN(C)CC2)cc1)[C@H]1CC[C@H]2[C@@H]3CCC4=CC(=O)CC[C@]4(C)[C@H]3CC[C@]12C [Compound 17, (8S,9S,10R,13S,14S,17S)-10,13-dimethyl-17-((E)-1-(4-((4-methylpiperazin-1-yl)methyl)benzoyloxyimino)ethyl)-6,7,8,9,10,11,12,13,14,15,16,17-dodecahydro-1H-cyclopenta[a]phenanthren-3(2H)-one] | < 30 | < 30 |
